Reference: US20070082819A1 (priority 2003, published 2007)

Tested on: eight representative weed species
Details: in vivo

SMILES: CCCC[N+](CCCC)(CCCC)CCCC.[Br-] [Tetrabutylammonium hyrobromide, tetrabutylammonium bromide]
- Mean Activity (%): 72%
